According to US12139498B1, “Positive allosteric modulators of the muscarinic acetylcholine receptor M4” (Vanderbilt University, priority 2023, dated 2024):

Target: T1, Human M4 (Homo sapiens, UniProt P08173)
T1 sequence (P08173 1-479): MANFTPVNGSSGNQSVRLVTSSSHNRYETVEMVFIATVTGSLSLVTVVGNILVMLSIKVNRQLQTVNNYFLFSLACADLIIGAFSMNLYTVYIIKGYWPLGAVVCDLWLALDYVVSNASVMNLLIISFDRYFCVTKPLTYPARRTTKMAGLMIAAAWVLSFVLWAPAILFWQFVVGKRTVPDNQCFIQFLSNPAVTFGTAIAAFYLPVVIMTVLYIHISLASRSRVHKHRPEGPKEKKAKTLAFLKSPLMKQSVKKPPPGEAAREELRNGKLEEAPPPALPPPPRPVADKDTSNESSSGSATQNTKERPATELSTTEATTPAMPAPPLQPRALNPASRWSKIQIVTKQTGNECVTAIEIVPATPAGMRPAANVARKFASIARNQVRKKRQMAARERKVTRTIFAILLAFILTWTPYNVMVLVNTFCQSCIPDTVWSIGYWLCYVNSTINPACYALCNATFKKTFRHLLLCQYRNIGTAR
Experiment: M4 cell-based functional assay (calcium mobilization)
Set-up: expressed in transfected cells
Settings: for Emax at 30 µM: % ACh maximum at 30 μM; for EC50: CHO-K1 hM4-Gqi5 cells, calcium flux, increase in EC20 acetylcholine response
Experimental: Human (h) and rat (r) M4 CDNAs, along with the chimeric G protein Gqi5, were transfected into Chinese hamster ovary (CHO-K1) cells purchased from the American Type Culture Collection using Lipofectamine2000. The transfected cells were subjected to selection antibiotic treatment to generate stable cell lines; G418 sulfate (1 mg/ml) for selecting M4 expressing cells and Hygromycin B (500 μg/mL) for selecting Gqi5 expressing cells. The resulting polyclones were further screened to obtain monoclones of hM4-Gqi5 and rM4-Gqi5 for compound screening assay. Stable monoclone cells were maintained in Ham's F-12 medium containing 10% heat-inactivated fetal bovine serum (FBS), 1× Antibiotic/Antimycotic, 20 mM HEPES, 500 μg/mL G418 sulfate, and 200 μg/mL Hygromycin B in 37° C. humidified incubators in the presence of 5% CO2.
The high throughput assay was employed to measure receptor-induced mobilization of intracellular calcium to determine compound activity. Test compound was added to cells expressing the muscarinic receptors that were loaded with calcium sensitive fluorescent dye. After a ˜2.5 minute incubation period, a submaximal (EC20) concentration of acetylcholine was added, and the response measured. This kinetic assay allows for simultaneous screening and potency determination of multiple pharmacological modes of action including agonist and potentiator activity. CHO-K1 cells stably expressing muscarinic receptors were plated in growth medium lacking G418 and hygromycin at 15,000 cells/20 μL/well in Greiner 384-well black-walled, tissue culture (TC)-treated, clear-bottom plates (Greiner Bio-One). Cells were incubated overnight at 37° C. and 5% CO2. The next day, calcium assay buffer (Hank's balanced salt solution (HBSS), 20 mM HEPES, 2.5 mM Probenecid, 4.16 mM sodium bicarbonate (Sigma-Aldrich, St. Louis, MO)) was prepared to dilute compounds, agonists, and Fluo-4-acetomethoxyester (Fluo-4-AM), fluorescent calcium indicator dye. Compounds were serially diluted 1:3 into 10 point concentration response curves in DMSO using the Bravo Liquid Handler (Agilent, Santa Clara, CA), transferred to a 384 well daughter plates using an Echo acoustic liquid handler (Beckman Coulter, Indianapolis, Indiana), and diluted in assay Buffer to a 2× final concentration. The agonist plates were prepared using acetylcholine (ACh, Sigma-Aldrich, St. Louis, MO) concentrations for the EC20 and ECMAX responses by diluting in assay buffer to a 5× final concentration. The 2× dye solution (2.3 μM) was prepared by mixing a 2.3 mM Fluo-4-AM stock in DMSO with 10% (w/v) pluronic acid F-127 in a 1:1 ratio in assay buffer. Using a microplate washer (BioTek, Winooski, VT), cells were washed with assay buffer for 3 times to remove medium. After the final wash, 20 μL of assay buffer remained in the cell plates. Immediately, 20 μL of the 2× dye solution (final 1.15 μM) was added to each well of the cell plate using a Multidrop Combi dispenser (Thermo Fisher, Waltham, MA). After cells were incubated with the dye solutions for 45 min at 37° C. in the presence of 5% CO2, the dye solutions were removed and replaced with assay buffer using a microplate washer, leaving 20 μL of assay buffer in the cell plate.
The prepared compound, agonist, and cell plates were placed inside the Functional Drug Screening System uCell (FDSS uCell, Hamamatsu, Japan) to measure the calcium flux.
The triple add protocol was used to measure Ca kinetics; Compound, ACh for EC2O, and ACh for EC80 adds in an order. Briefly, after establishment of a fluorescence baseline for 2 seconds (excitation, 480 nm; emission, 530 nm), first add occurred by adding 20 μL of test compound to the cells, and the response was measured for 140 seconds. This is followed by second add; 10 μL (5×) of an EC20 concentration of ACh agonist was added to the cells, and the response of the cells was measured for 125 seconds. […]

Structure (SMILES) | Emax at 30 µM [%] | EC50 [µM]
Cc1cc2nccnc2nc1N1CCc2nc(C(C)(C)C)sc2C1 [Compound 65, 2-(tert-butyl)-5-(7-methylpyrido[2,3-b]pyrazin-6-yl)-4,5,6,7-tetrahydrothiazolo[5,4-c]pyridine] | 57 | 1.89
Cc1c(N2CCc3nc(C4CC4)sc3C2)nc2nn(CC3CC3)c(=O)n2c1C [Compound 75, 7-(2-cyclopropyl-6,7-dihydrothiazolo[5,4-c]pyridin-5(4H)-yl)-2-(cyclopropylmethyl)-5,6-dimethyl-[1,2,4]triazolo[4,3-a]pyrimidin-3(2H)-one] | 111 | 0.015
Cc1c(N2CCc3nc(C4CC4)sc3C2)nc2nn(CC3CC3(F)F)c(=O)n2c1C (stereo not shown) [Compound 74, 7-(2-cyclopropyl-6,7-dihydrothiazolo[5,4-c]pyridin-5(4H)-yl)-2-((2,2-difluorocyclopropyl)methyl)-5,6-dimethyl-[1,2,4]triazolo[4,3-a]pyrimidin-3(2H)-one] | 94 | 0.007
Cc1nc(Cl)c(C)c(N2CCc3nc(Nc4ccccc4F)sc3C2)n1 [Compound 14, 5-(6-chloro-2,5-dimethylpyrimidin-4-yl)-N-(2-fluorophenyl)-4,5,6,7-tetrahydrothiazolo[5,4-c]pyridin-2-amine] | 51 | 5.23
Cc1cc2nccnc2nc1N1CCc2nc(C(C)C)sc2C1 [Compound 64, 2-isopropyl-5-(7-methylpyrido[2,3-b]pyrazin-6-yl)-4,5,6,7-tetrahydrothiazolo[5,4-c]pyridine] | 76 | 0.119
Cc1cc(-c2nc3c(s2)CN(c2ncc(C#N)cc2C)CC3)ccn1 [Compound 2, 5-methyl-6-(2-(2-methylpyridin-4-yl)-6,7-dihydrothiazolo[5,4-c]pyridin-5(4H)-yl)nicotinonitrile] | 59 | 0.612
Cc1c(N2CCc3nc(C4CC4)sc3C2)nc2nn(C)c(=O)n2c1C [Compound 77, 7-(2-cyclopropyl-6,7-dihydrothiazolo[5,4-c]pyridin-5(4H)-yl)-2,5,6-trimethyl-[1,2,4]triazolo[4,3-a]pyrimidin-3(2H)-one] | 121 | 0.009
Clc1ccc2ncnc(N3CCc4nc(Br)sc4C3)c2c1 [Compound 29, 2-bromo-5-(6-chloroquinazolin-4-yl)-4,5,6,7-tetrahydrothiazolo[5,4-c]pyridine] | 96 | 0.144
Cc1c(C#N)nnc(N2CCc3nc(C4CC4)sc3C2)c1C [Compound 12, 6-(2-cyclopropyl-6,7-dihydrothiazolo[5,4-c]pyridin-5(4H)-yl)-4,5-dimethylpyridazine-3-carbonitrile] | 76 | 0.161
Cc1cc2nc(C(=O)N3CC(C)(F)C3)cc(=O)n2nc1N1CCc2nc(Br)sc2C1 [Compound 45, 7-(2-bromo-6,7-dihydrothiazolo[5,4-c]pyridin-5(4H)-yl)-2-(3-fluoro-3-methylazetidine-1-carbonyl)-8-methyl-4H-pyrimido[1,2-b]pyridazin-4-one] | 85 | 0.752
Cc1cc2nccnc2nc1N1CCc2nc(C3CC3)sc2C1 [Compound 54, 2-cyclopropyl-5-(7-methylpyrido[2,3-b]pyrazin-6-yl)-4,5,6,7-tetrahydrothiazolo[5,4-c]pyridine] | 82 | 0.032
Cc1cc2nccnc2nc1N1CCc2nc(-c3cccs3)sc2C1 [Compound 56, 5-(7-methylpyrido[2,3-b]pyrazin-6-yl)-2-(thiophen-2-yl)-4,5,6,7-tetrahydrothiazolo[5,4-c]pyridine] | 50 | 2.39
Cc1cc2nc(C(=O)NC3(C#N)CC3)cc(=O)n2nc1N1CCc2nc(Br)sc2C1 [Compound 46, 7-(2-bromo-6,7-dihydrothiazolo[5,4-c]pyridin-5(4H)-yl)-N-(1-cyanocyclopropyl)-8-methyl-4-oxo-4H-pyrimido[1,2-b]pyridazine-2-carboxamide] | 91 | 0.36
Cc1cc2nccnc2nc1N1CCc2nc(-c3ccnn3C)sc2C1 [Compound 59, 2-(1-methyl-1H-pyrazol-5-yl)-5-(7-methylpyrido[2,3-b]pyrazin-6-yl)-4,5,6,7-tetrahydrothiazolo[5,4-c]pyridine] | 54 | 2.78
Cc1nc(Cl)c(C)c(N2CCc3nc(C)sc3C2)n1 [Compound 9, 5-(6-chloro-2,5-dimethylpyrimidin-4-yl)-2-methyl-4,5,6,7-tetrahydrothiazolo[5,4-c]pyridine] | 98 | 0.66
Cc1cc(C#N)cnc1N1CCc2nc(-c3cncs3)sc2C1 [Compound 3, 5-methyl-6-(2-(thiazol-5-yl)-6,7-dihydrothiazolo[5,4-c]pyridin-5(4H)-yl)nicotinonitrile] | 45 | > 10
Cc1nc(N2CCc3nc(Br)sc3C2)c2cc(Cl)ccc2n1 [Compound 32, 2-bromo-5-(6-chloro-2-methylquinazolin-4-yl)-4,5,6,7-tetrahydrothiazolo[5,4-c]pyridine] | 91 | 0.2
Cc1cc2nc(=O)cc(C)n2nc1N1CCc2nc(Br)sc2C1 [Compound 51, 7-(2-bromo-6,7-dihydrothiazolo[5,4-c]pyridin-5(4H)-yl)-4,8-dimethyl-2H-pyrimido[1,2-b]pyridazin-2-one] | 71 | 0.378
Cc1nc2c(C)c(C)c(N3CCc4nc(Br)sc4C3)nn2c(=O)c1F [Compound 37, 7-(2-bromo-6,7-dihydrothiazolo[5,4-c]pyridin-5(4H)-yl)-3-fluoro-2,8,9-trimethyl-4H-pyrimido[1,2-b]pyridazin-4-one] | 81 | 0.047
CCOC(=O)c1cc(=O)n2nc(N3CCc4nc(Br)sc4C3)c(C)cc2n1 [Compound 52, ethyl 7-(2-bromo-6,7-dihydrothiazolo[5,4-c]pyridin-5(4H)-yl)-8-methyl-4-oxo-4H-pyrimido[1,2-b]pyridazine-2-carboxylate] | 92 | 0.868
Cc1cc2nccnc2nc1N1CCc2nc(C(F)(F)F)sc2C1 [Compound 62, 5-(7-methylpyrido[2,3-b]pyrazin-6-yl)-2-(trifluoromethyl)-4,5,6,7-tetrahydrothiazolo[5,4-c]pyridine] | 72 | 0.093
Cc1cc2nc(=O)cc(C(F)(F)F)n2nc1N1CCc2nc(Br)sc2C1 [Compound 49, 7-(2-bromo-6,7-dihydrothiazolo[5,4-c]pyridin-5(4H)-yl)-8-methyl-4-(trifluoromethyl)-2H-pyrimido[1,2-b]pyridazin-2-one] | 76 | 0.386
[2H]C([2H])([2H])c1nc2c(s1)CN(c1ncc(C#N)cc1C)CC2 [Compound 20, 5-methyl-6-(2-(methyl-d3)-6,7-dihydrothiazolo[5,4-c]pyridin-5(4H)-yl)nicotinonitrile] | 101 | 0.243
